Experimental data: patent US7705030B2, “Amino-5-(5-membered)hetero-arylimidazolone compounds and the use thereof for β-secretase modulation” (Wyeth LLC, priority 2005, dated 2010)

Columns and labels:
human BACE1 = human BACE1 (Homo sapiens, UniProt P56817); assay: Fluorescent kinetic assay: Evaluation of BACE-1 Binding Affinity of Test Compounds; format: biochemical; conditions: 10 nM enzyme, 25 μM substrate WABC-6, 50 mM Na-Acetate pH 4.5, room temperature
Outline: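 Run with 10 nM human BACE1 and 25 μM WABC-6 FRET peptide in 50 mM Na-acetate pH 4.5, 0.05% CHAPS, 25% PBS at room temperature. Fluorescence (ex 320/em 420 nm) was read every 40 sec for 30 min, and initial cleavage rates were taken from linear slopes across ≥10 inhibitor concentrations.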

Sequence of human BACE1 (P56817 46-501): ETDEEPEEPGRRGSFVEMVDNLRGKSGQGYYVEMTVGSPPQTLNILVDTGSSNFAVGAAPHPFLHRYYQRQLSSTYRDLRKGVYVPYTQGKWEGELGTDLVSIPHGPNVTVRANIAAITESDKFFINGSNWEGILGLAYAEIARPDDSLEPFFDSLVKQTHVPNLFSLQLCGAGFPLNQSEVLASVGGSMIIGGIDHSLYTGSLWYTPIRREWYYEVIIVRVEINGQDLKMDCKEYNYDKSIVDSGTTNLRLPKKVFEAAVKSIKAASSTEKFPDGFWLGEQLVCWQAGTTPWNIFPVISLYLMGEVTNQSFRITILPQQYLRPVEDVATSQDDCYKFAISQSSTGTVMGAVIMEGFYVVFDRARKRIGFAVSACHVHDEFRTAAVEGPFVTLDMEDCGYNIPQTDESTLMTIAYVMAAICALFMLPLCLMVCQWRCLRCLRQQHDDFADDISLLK

Structure (SMILES) | IC50 (human BACE1) [nM] | melting point [°C]
CCC(=O)c1cc(C2(c3cccc(-c4cccnc4F)c3)N=C(N)N(C)C2=O)cn1C (stereo not drawn) [Example 180] | 10 to 100 | 107 to 111
CCC(=O)c1cc(C2(c3cccc(-c4cccnc4F)c3)N=C(N)N(C)C2=O)cn1Cc1ccccc1 (stereo not drawn) [Example 181] | 10 to 100 | 93 to 96
CCC(=O)c1cc(C2(c3cccc(-c4cccnc4F)c3)N=C(N)N(C)C2=O)cn1Cc1cscn1 (stereo not drawn) [Example 182] | 10 to 100 | 116 to 120
CCC(=O)c1cc([C@]2(c3ccc(F)c(-c4cccnc4F)c3)N=C(N)N(C)C2=O)cn1CC [Example 183A, (5S)-2-Amino-5-(1-ethyl-5-propionyl-1H-pyrrol-3-yl)-5-[4-fluoro-3-(2-fluoropyridin-3-yl)phenyl]-3-methyl-3,5-dihydro-4H-imidazol-4-one] | 10 to 100 | 114 to 116
COC(=O)c1cc([C@]2(c3ccc(F)c(-c4cccnc4F)c3)N=C(N)N(C)C2=O)cn1CCF [Example 184A, Methyl 4-{(4S)-2-amino-4-[4-fluoro-3-(2-fluoropyridin-3-yl)phenyl]-1-methyl-5-oxo-4,5-dihydro-1H-imidazol-4-yl}-1-(2-fluoroethyl)-1H-pyrrole-2-carboxylate] | 10 to 100 | 111 to 113
CCC(=O)c1cc([C@]2(c3cccc(-c4cccnc4F)c3)N=C(N)N(C)C2=O)cn1CC [Example 185, (5S)-2-Amino-5-(1-ethyl-5-propionyl-1H-pyrrol-3-yl)-5-[3-(2-fluoropyridin-3-yl)phenyl]-3-methyl-3,5-dihydro-4H-imidazol-4-one] | 10 to 100 | 94 to 97
CCn1cc([C@]2(c3ccc(F)c(-c4cccnc4F)c3)N=C(N)N(C)C2=O)cc1C(=O)OC [Example 186, Methyl 4-{(4S)-2-amino-4-[4-fluoro-3-(2-fluoropyridin-3-yl)phenyl]-1-methyl-5-oxo-4,5-dihydro-1H-imidazol-4-yl-}-ethyl-1H-pyrrole-2-carboxylate] | 10 to 100 | 114 to 117
CCn1cc([C@]2(c3cccc(-c4cccnc4F)c3)N=C(N)N(C)C2=O)cc1C(C)=O [Example 187, (5S)-5-(5-Acetyl-1-ethyl-1H-pyrrol-3-yl)-2-amino-5-[3-(2-fluoropyridin-3-yl)phenyl]-3-methyl-3,5-dihydro-4H-imidazol-4-one] | 10 to 100 | 109 to 111
CCn1cc(C2(c3ccc(F)c(-c4cccnc4F)c3)N=C(N)N(C)C2=O)cc1S(C)(=O)=O (stereo not drawn) [Example 188, 2-Amino-5-[1-ethyl-5-(methylsulfonyl)-1H-pyrrol-3-yl]-5-[4-fluoro-3-(2-fluoropyridin-3-yl)phenyl]-3-methyl-3,5-dihydro-4H-imidazol-4-one] | 10 to 100 | 193 to 195
COC(=O)c1cc(C2(c3cccc(-c4ccc(F)nc4)c3)N=C(N)N(C)C2=O)cn1CCF (stereo not drawn) [Example 191] | 10 to 100 | 206 to 210
COC(=O)c1cc(C2(c3cccc(-c4cc(F)ccc4F)c3)N=C(N)N(C)C2=O)cn1CCF (stereo not drawn) [Example 192] | 10 to 100 | 166 to 170
COC(=O)c1cc(C2(c3cccc(-c4cc(F)cc(F)c4)c3)N=C(N)N(C)C2=O)cn1CCF (stereo not drawn) [Example 193] | 10 to 100 | 173 to 176
COC(=O)c1cc(C2(c3cccc(-c4cccc(C#N)c4)c3)N=C(N)N(C)C2=O)cn1CCF (stereo not drawn) [Example 194] | 10 to 100 | 98 to 101
COC(=O)c1cc(C2(c3cccc(-c4cc(C#N)ccc4F)c3)N=C(N)N(C)C2=O)cn1CCF (stereo not drawn) [Example 195] | 10 to 100 | 147 to 150
COC(=O)c1cc(C2(c3cccc(-c4cccc(OC)c4)c3)N=C(N)N(C)C2=O)cn1CCF (stereo not drawn) [Example 196] | 10 to 100 | 121 to 124
COC(=O)c1cc(C2(c3cccc(-c4ccc(F)c(F)c4)c3)N=C(N)N(C)C2=O)cn1CCF (stereo not drawn) [Example 198] | 10 to 100 | 125 to 128
COC(=O)c1cc(C2(c3cccc(-c4ccc5c(c4)OCO5)c3)N=C(N)N(C)C2=O)cn1CCF (stereo not drawn) [Example 199] | 110 to 1000 | 137 to 140
CCC(=O)c1cc(C2(c3cccc(-c4cccnc4F)c3)N=C(N)N(C)C2=O)cn1CC(F)(F)F (stereo not drawn) [Example 200, 2-Amino-5-[5-propionyl-1-(2,2,2-trifluoroethyl)-1H-pyrrol-3-yl]-5-[3-(2-fluoropyridin-3-yl)phenyl]-3-methyl-3,5-dihydro-4H-imidazol-4-one] | 10 to 100 | 108 to 110
CCC(=O)c1cc(C2(c3cccc(-c4cncnc4)c3)N=C(N)N(C)C2=O)cn1CC(F)(F)F (stereo not drawn) [Example 201] | 10 to 100 | 135 to 137
CCC(=O)c1cc(C2(c3cccc(-c4cccc(OC)c4)c3)N=C(N)N(C)C2=O)cn1CC(F)(F)F (stereo not drawn) [Example 202] | 10 to 100 | 103 to 105
CCC(=O)c1cc(C2(c3cccc(-c4cc(F)cc(F)c4)c3)N=C(N)N(C)C2=O)cn1CC(F)(F)F (stereo not drawn) [Example 203] | 10 to 100 | 104 to 106
CCC(=O)c1cc(C2(c3cccc(-c4cccc(Cl)c4)c3)N=C(N)N(C)C2=O)cn1CC(F)(F)F (stereo not drawn) [Example 204] | 10 to 100 | 108 to 110
CCC(=O)c1cc(C2(c3cccc(-c4ccc(F)c(Cl)c4)c3)N=C(N)N(C)C2=O)cn1CC(F)(F)F (stereo not drawn) [Example 205] | 10 to 100 | 107 to 108
CCC(=O)c1cc(C2(c3cccc(-c4cccc(C#N)c4)c3)N=C(N)N(C)C2=O)cn1CC(F)(F)F (stereo not drawn) [Example 206] | 10 to 100 | 112 to 114
CCC(=O)c1cc(C2(c3ccc(F)c(-c4cccnc4F)c3)N=C(N)N(C)C2=O)cn1CC(F)(F)F (stereo not drawn) [Example 207] | 10 to 100 | 122 to 124
CCC(=O)c1cc(C2(c3ccc(F)c(-c4cncnc4)c3)N=C(N)N(C)C2=O)cn1CC(F)(F)F (stereo not drawn) [Example 208] | 10 to 100 | 225 to 226

Results, then the compound that gave them:

IC50 (human BACE1) [nM] | melting point [°C] | Structure (SMILES)
110 to 1000 | 214 to 225 | CN1C(=O)C(c2cccc(-c3cncnc3)c2)(c2cc(C#N)n(C)c2)N=C1N (stereo not drawn) [Example 225, 4-[2-Amino-1-methyl-5-oxo-4-(3-pyrimidin-5-ylphenyl)-4,5-dihydro-1H-imidazol-4-yl]-1-methyl-1H-pyrrole-2-carbonitrile]
110 to 1000 | 213 to 220 | CN1C(=O)C(c2cccc(-c3cccnc3F)c2)(c2cc(C#N)n(C)c2)N=C1N (stereo not drawn) [Example 226]
110 to 1000 | > 225 | CN1C(=O)C(c2cccc(-c3cc(F)cnc3Cl)c2)(c2cc(C#N)n(C)c2)N=C1N (stereo not drawn) [Example 227]
110 to 1000 | 193 to 194 | CN1C(=O)C(c2cccc(-c3cncnc3)c2)(c2cc(C#N)n(CCF)c2)N=C1N (stereo not drawn) [Example 228]
10 to 100 | 165 to 166 | CCCn1cc(C2(c3cccc(-c4cncnc4)c3)N=C(N)N(C)C2=O)cc1C#N (stereo not drawn) [Example 229]
10 to 100 | 187 to 188 | CCCn1cc(C2(c3cccc(-c4cccnc4F)c3)N=C(N)N(C)C2=O)cc1C#N (stereo not drawn) [Example 230]
10 to 100 | 175 to 177 | CN1C(=O)C(c2cccc(-c3cccnc3F)c2)(c2cc(C#N)n(CCF)c2)N=C1N (stereo not drawn) [Example 231]
110 to 1000 | 132 to 134 | CCCn1cc(C2(c3cccc(-c4cc(F)cnc4Cl)c3)N=C(N)N(C)C2=O)cc1C#N (stereo not drawn) [Example 232]
10 to 100 | 198 to 201 | CCn1cc(C2(c3cccc(-c4cccnc4F)c3)N=C(N)N(C)C2=O)cc1C=O (stereo not drawn) [Example 233, 4-[2-amino-4-[3-(2-fluoropyridin-3-yl)phenyl]-1-methyl-5-oxo-4,5-dihydro-1H-imidazol-4-yl]-1-ethyl-1H-pyrrole-2-carbaldehyde]
10 to 100 | 218 to 221 | CN1C(=O)C(c2cccc(-c3cccnc3F)c2)(c2cc(C=O)n(CCF)c2)N=C1N (stereo not drawn) [Example 234, 4-[2-Amino-4-[3-(2-fluoropyridin-3-yl)phenyl]-1-methyl-5-oxo-4,5-dihydro-1H-imidazol-4-yl]-1-(2-fluoroethyl)-1H-pyrrole-2-carbaldehyde]
> 1000 | 121 to 140 | CCN(CC)Cc1cc(C2(c3cccc(-c4cccnc4F)c3)N=C(N)N(C)C2=O)cn1CCF (stereo not drawn) [Example 235, 2-Amino-5-[5-[(diethylamino)methyl]-1-(2-fluoroethyl)-1H-pyrrol-3-yl]-5-[3-(2-fluoropyridin-3-yl)phenyl]-3-methyl-3,5-dihydro-4H-imidazol-4-one]
> 1000 | 98 to 99 | CC(C)NCc1cc(C2(c3cccc(-c4cccnc4F)c3)N=C(N)N(C)C2=O)cn1CCF (stereo not drawn) [Example 236]
> 1000 | 110 to 120 | CN1C(=O)C(c2cccc(-c3cccnc3F)c2)(c2cc(CN3CCCC3)n(CCF)c2)N=C1N (stereo not drawn) [Example 237]
110 to 1000 | 118 to 121 | CN(C)Cc1cc(C2(c3cccc(-c4cccnc4F)c3)N=C(N)N(C)C2=O)cn1CCF (stereo not drawn) [Example 238]
10 to 100 | 170 to 172 | CCn1cc(C2(c3cccc(-c4cccnc4F)c3)N=C(N)N(C)C2=O)cc1CO (stereo not drawn) [Example 239, 2-Amino-5-[1-ethyl-5-(hydroxymethyl)-1H-pyrrol-3-yl]-5-[3-(2-fluoropyridin-3-yl)phenyl]-3-methyl-3,5-dihydro-4H-imidazol-4-one]
110 to 1000 | 115 to 121 | CCC(O)c1cc(C2(c3cccc(-c4cccnc4F)c3)N=C(N)N(C)C2=O)cn1CC (stereo not drawn) [Example 240, 2-Amino-5-[1-ethyl-5-(1-hydroxypropyl)-1H-pyrrol-3-yl]-5-[3-(2-fluoropyridin-3-yl)phenyl]-3-methyl-3,5-dihydro-4H-imidazol-4-one]
